Test results from ChEMBL document CHEMBL4483862, “Open-source discovery of chemical leads for next-generation chemoprotective antimalarials” (2018).

System: Plasmodium berghei
Assay: Luciferase/luciferin-expressing antifolate-resistant parasites were used to infect a culture of HepG2 cells that were pre-incubated with compounds. Infected hepatocytes emit light due to the luciferase reaction. Assay results are presented as the percent inhibition of light emission compared to control. […]
Assay type: functional
Details: sporozoite; for IC90: read-out: LUCIFERASE INFECTION ASSAY - IC90

SMILES	IC90	other results
COc1ccc(-n2nc(C)c3c(O)c4c(nc32)CCCC4)cc1	> 10.7 µM	IC50 (HEPG2TOX_HILL_SLOPE 2.37, HEPG2TOX_R_SQUARED 0.552, read-out: LUCIFERASE INFECTION ASSAY - IC50): > 10.7 µM
Cc1cc(C(C)(C)C)cc(C)c1COC(=O)c1cccnc1	> 10 µM	IC50 (HEPG2TOX_HILL_SLOPE 2.37, HEPG2TOX_R_SQUARED 0.0156, PBLUC_HILL_SLOPE 8.85, PBLUC_R_SQUARED 0.304, read-out: LUCIFERASE INFECTION ASSAY - IC50): 8.03 µM
CN(C(=O)CSc1nnc(COc2ccccc2F)n1N)C1CCCCC1	6.57 µM	IC50 (HEPG2TOX_HILL_SLOPE 2.33, HEPG2TOX_R_SQUARED 0.96, PBLUC_HILL_SLOPE 2.14, PBLUC_R_SQUARED 0.67, read-out: LUCIFERASE INFECTION ASSAY - IC50): 2.35 µM
CCCNc1nccn2c(-c3ccc(C(=O)NC4CC4)cc3)cnc12	7.31 µM	IC50 (HEPG2TOX_HILL_SLOPE 2.37, HEPG2TOX_R_SQUARED 0.851, PBLUC_HILL_SLOPE 7.04, PBLUC_R_SQUARED 0.366, read-out: LUCIFERASE INFECTION ASSAY - IC50): 5.35 µM
CC(=O)Nc1ncc2c(Cl)cccc2n1	> 14.9 µM	IC50 (HEPG2TOX_HILL_SLOPE 2.36, HEPG2TOX_R_SQUARED 0.885, PBLUC_HILL_SLOPE 2.93, PBLUC_R_SQUARED 0.162, read-out: LUCIFERASE INFECTION ASSAY - IC50): 7.84 µM
CCCNc1ccc2ncc(-c3ccc(OC)c(OC)c3)n2n1	2.73 µM	IC50 (HEPG2TOX_HILL_SLOPE 2.36, HEPG2TOX_R_SQUARED 0.919, PBLUC_HILL_SLOPE 2.02, PBLUC_R_SQUARED 0.782, read-out: LUCIFERASE INFECTION ASSAY - IC50): 0.918 µM
N#Cc1ccsc1NC(=O)COC(=O)c1c2c(nc3ccccc13)/C(=C/c1cccc([N+](=O)[O-])c1)CCC2	> 10 µM	IC50 (HEPG2TOX_HILL_SLOPE 2.36, HEPG2TOX_R_SQUARED 0.622, PBLUC_HILL_SLOPE 3.04, PBLUC_R_SQUARED 0.408, read-out: LUCIFERASE INFECTION ASSAY - IC50): 7.71 µM
CNC(=O)N(C1=NCC(C)(C)S1)c1cccc(C(F)(F)F)c1	> 9.96 µM	IC50 (HEPG2TOX_HILL_SLOPE 2.33, HEPG2TOX_R_SQUARED 0.841, PBLUC_HILL_SLOPE 2.51, PBLUC_R_SQUARED 0.0629, read-out: LUCIFERASE INFECTION ASSAY - IC50): 7.95 µM
CN(Cc1ccc(C(N)=O)cc1)c1ncnc2ccccc12	1.53 µM	IC50 (HEPG2TOX_HILL_SLOPE 2.36, HEPG2TOX_R_SQUARED 0.863, PBLUC_HILL_SLOPE 14.7, PBLUC_R_SQUARED 0.585, read-out: LUCIFERASE INFECTION ASSAY - IC50): 1.32 µM
CC(C)(C)OC(=O)N1CCc2nc(NC(=O)c3ccc(Cl)cc3F)sc2C1	8.96 µM	IC50 (HEPG2TOX_HILL_SLOPE 2.37, HEPG2TOX_R_SQUARED 0.812, PBLUC_HILL_SLOPE 3.49, PBLUC_R_SQUARED 0.436, read-out: LUCIFERASE INFECTION ASSAY - IC50): 4.77 µM
COc1cccc(CN(C)c2ncnc3sc(C)c(C)c23)c1OC	3.84 µM	IC50 (HEPG2TOX_HILL_SLOPE 2.36, HEPG2TOX_R_SQUARED 0.798, PBLUC_HILL_SLOPE 15.6, PBLUC_R_SQUARED 0.417, read-out: LUCIFERASE INFECTION ASSAY - IC50): 3.34 µM
OCc1ccc(-c2ccc3ncc(-c4cccc(CO)c4)n3n2)cc1	2.83 µM	IC50 (HEPG2TOX_HILL_SLOPE 2.34, HEPG2TOX_R_SQUARED 0.973, PBLUC_HILL_SLOPE 2.94, PBLUC_R_SQUARED 0.59, read-out: LUCIFERASE INFECTION ASSAY - IC50): 1.34 µM
CC(C)(C)c1ccc(NC(=O)c2ccc(CCNS(C)(=O)=O)cc2)cc1	3.46 µM	IC50 (HEPG2TOX_HILL_SLOPE 2.32, HEPG2TOX_R_SQUARED 0.971, PBLUC_HILL_SLOPE 55.7, PBLUC_R_SQUARED 0.572, read-out: LUCIFERASE INFECTION ASSAY - IC50): 3.32 µM
O=C(c1cccc(-c2ccncc2)c1)c1cnc(Nc2cccc(Br)c2)[nH]1	2.54 µM	IC50 (HEPG2TOX_HILL_SLOPE 2.34, HEPG2TOX_R_SQUARED 0.815, PBLUC_HILL_SLOPE 3.59, PBLUC_R_SQUARED 0.729, read-out: LUCIFERASE INFECTION ASSAY - IC50): 1.38 µM
O=C(NCc1cccs1)C1Cc2c(-c3ccccc3)ccnc2O1 (centres undefined)	6.65 µM	IC50 (HEPG2TOX_HILL_SLOPE 2.36, HEPG2TOX_R_SQUARED 0.977, PBLUC_HILL_SLOPE 2.08, PBLUC_R_SQUARED 0.632, read-out: LUCIFERASE INFECTION ASSAY - IC50): 2.31 µM
Cc1cc(C)nc(NNC(=S)NC(=O)C23CC4CC(CC(C4)C2)C3)n1	3.62 µM	IC50 (HEPG2TOX_HILL_SLOPE 2.34, HEPG2TOX_R_SQUARED 0.811, PBLUC_HILL_SLOPE 12, PBLUC_R_SQUARED 0.36, read-out: LUCIFERASE INFECTION ASSAY - IC50): 3.01 µM

SMILES	IC90	other results
CCc1cc(=O)n2ncc(-c3ccc(Cl)cc3)c2[nH]1	3.53 µM	IC50 (HEPG2TOX_HILL_SLOPE 2.33, HEPG2TOX_R_SQUARED 0.563, PBLUC_HILL_SLOPE 7.25, PBLUC_R_SQUARED 0.422, read-out: LUCIFERASE INFECTION ASSAY - IC50): 2.61 µM
COc1ccc(F)cc1-c1ccnc2n[nH]c(-c3ccc(Cl)cc3)c12	> 10 µM	IC50 (HEPG2TOX_HILL_SLOPE 2.34, HEPG2TOX_R_SQUARED 0.976, PBLUC_HILL_SLOPE 1.09, PBLUC_R_SQUARED 0.396, read-out: LUCIFERASE INFECTION ASSAY - IC50): 1.84 µM
CC1CCc2sc(C(=O)N/N=C/c3ccc(Cl)cc3Cl)cc2C1 (centres undefined)	5.01 µM	IC50 (HEPG2TOX_HILL_SLOPE 2.35, HEPG2TOX_R_SQUARED 0.954, PBLUC_HILL_SLOPE 8.15, PBLUC_R_SQUARED 0.258, read-out: LUCIFERASE INFECTION ASSAY - IC50): 3.82 µM
CN(C)c1cccc(Nc2nccc3[nH]c(-c4cccc(F)c4)cc23)c1	1.41 µM	IC50 (HEPG2TOX_HILL_SLOPE 2.36, HEPG2TOX_R_SQUARED 0.936, PBLUC_HILL_SLOPE 7.91, PBLUC_R_SQUARED 0.783, read-out: LUCIFERASE INFECTION ASSAY - IC50): 1.07 µM
O=S(=O)(c1ccc(Cl)c(NC(=S)N/N=C/c2ccc(O)cc2O)c1)N1CCOCC1	8.73 µM	IC50 (HEPG2TOX_HILL_SLOPE 2.35, HEPG2TOX_R_SQUARED 0.922, PBLUC_HILL_SLOPE 5.37, PBLUC_R_SQUARED 0.597, read-out: LUCIFERASE INFECTION ASSAY - IC50): 5.8 µM
OCc1ccccc1-c1cn2c(-c3ccc4c(c3)OCO4)cnc2cn1	> 9.56 µM	IC50 (HEPG2TOX_HILL_SLOPE 2.34, HEPG2TOX_R_SQUARED 0.695, PBLUC_HILL_SLOPE 2.89, PBLUC_R_SQUARED 0.35, read-out: LUCIFERASE INFECTION ASSAY - IC50): 8.14 µM
OCc1cccc(-c2cnc3ccc(-c4ccc(F)cc4)nn23)c1	6.8 µM	IC50 (HEPG2TOX_HILL_SLOPE 2.34, HEPG2TOX_R_SQUARED 0.934, PBLUC_HILL_SLOPE 3.16, PBLUC_R_SQUARED 0.564, read-out: LUCIFERASE INFECTION ASSAY - IC50): 3.39 µM
N#Cc1ccc(CNC(=S)Nc2ccc(Cl)c(Cl)c2)cc1	9.71 µM	IC50 (HEPG2TOX_HILL_SLOPE 2.37, HEPG2TOX_R_SQUARED 0.471, PBLUC_HILL_SLOPE 2.37, PBLUC_R_SQUARED 0.613, read-out: LUCIFERASE INFECTION ASSAY - IC50): 3.85 µM
COc1cc(OC)cc(-c2cnc3cnc(-c4ccc(Cl)cc4)cn23)c1	8.07 µM	IC50 (HEPG2TOX_HILL_SLOPE 2.36, HEPG2TOX_R_SQUARED 0.458, PBLUC_HILL_SLOPE 2.59, PBLUC_R_SQUARED 0.445, read-out: LUCIFERASE INFECTION ASSAY - IC50): 3.46 µM
CC(C)(C)CC(C)(C)NC(=O)c1cccc(S(=O)(=O)N2CCc3ccccc32)c1	> 10 µM	IC50 (HEPG2TOX_HILL_SLOPE 2.33, HEPG2TOX_R_SQUARED 0.906, PBLUC_HILL_SLOPE 19.2, PBLUC_R_SQUARED 0.577, read-out: LUCIFERASE INFECTION ASSAY - IC50): 9.58 µM
COc1cc(C(O)(c2nc3ccccc3s2)C(F)(F)F)c(OC)cc1N (centres undefined)	> 10 µM	IC50 (HEPG2TOX_HILL_SLOPE 2.34, HEPG2TOX_R_SQUARED 0.875, PBLUC_HILL_SLOPE 2.52, PBLUC_R_SQUARED 0.408, read-out: LUCIFERASE INFECTION ASSAY - IC50): 6.31 µM
Cc1ccc2nc(NC(=O)c3ccccc3C)c(C(=O)NCC(C)C)n2c1	9 µM	IC50 (HEPG2TOX_HILL_SLOPE 2.35, HEPG2TOX_R_SQUARED 0.51, PBLUC_HILL_SLOPE 14.9, PBLUC_R_SQUARED 0.347, read-out: LUCIFERASE INFECTION ASSAY - IC50): 7.76 µM
Cc1cc(N(Cc2ccc(C(C)C)cc2)C2CC2)n2ncnc2n1	> 10 µM	IC50 (HEPG2TOX_HILL_SLOPE 2.35, HEPG2TOX_R_SQUARED 0.908, PBLUC_HILL_SLOPE 2.49, PBLUC_R_SQUARED 0.764, read-out: LUCIFERASE INFECTION ASSAY - IC50): 4.95 µM
CC(C)(C)c1ccc(-c2ccc(OCCN3CCOCC3)nc2)cc1	> 9.69 µM	IC50 (HEPG2TOX_HILL_SLOPE 2.33, HEPG2TOX_R_SQUARED 0.966, PBLUC_HILL_SLOPE 2.69, PBLUC_R_SQUARED 0.584, read-out: LUCIFERASE INFECTION ASSAY - IC50): 4.35 µM
CC(C)(C)NC(=S)Nc1ccccc1N1CCCCC1	> 11.3 µM	IC50 (HEPG2TOX_HILL_SLOPE 2.33, HEPG2TOX_R_SQUARED 0.936, read-out: LUCIFERASE INFECTION ASSAY - IC50): > 11.3 µM
CC1CC1c1ccc(/C=C/C(=O)NNC(=S)NCC2CCCO2)o1 (centres undefined)	3.79 µM	IC50 (HEPG2TOX_HILL_SLOPE 2.34, HEPG2TOX_R_SQUARED 0.989, PBLUC_HILL_SLOPE 14.4, PBLUC_R_SQUARED 0.432, read-out: LUCIFERASE INFECTION ASSAY - IC50): 3.25 µM
